The values that follow come from ChEMBL document CHEMBL1135119, “Solid-phase synthesis of FKBP12 inhibitors: N-sulfonyl and N-carbamoylprolyl/pipecolyl amides” (Bioorg Med Chem Lett, 2002).

In test [1] the target is Peptidyl-prolyl cis-trans isomerase FKBP1A (Homo sapiens, UniProt P62942). Kind of test: Ability to inhibit peptidyl-prolyl isomerase (PPIase, or rotamase) activity of FK506 binding protein 12.
The subject of test [2] is Mus musculus. Kind of test: Recovery of TH-immunostaining in […]-treated mice by post-MPTP treatment at a peroral dose of 10 mg/kg. Type of test: functional, organism-based. Details: dose 10 mg/kg.

pKi: −log10 of the molar value.

Peptidyl-prolyl cis-trans isomerase FKBP1A, sequence (P62942 whole entry): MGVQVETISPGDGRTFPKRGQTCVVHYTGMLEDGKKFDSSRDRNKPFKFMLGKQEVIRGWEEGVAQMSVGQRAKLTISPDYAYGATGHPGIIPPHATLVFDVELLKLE

In turn, `Cc1ccc(S(=O)(=O)N2CCCC2C(=O)NCc2ccccc2)cc1` (centres undefined) gave a pKi in test [1] below 4.30.
The same measure, in the same setting: the figure for `O=C(NCc1ccccc1)C1CCCCN1S(=O)(=O)c1ccccc1` (centres undefined) is 5.60.
`O=C(NCCc1ccccc1)C1CCCN1S(=O)(=O)c1ccccc1` (centres undefined) had a pKi in test [1] of 4.43.
On the same count and under the same terms, the figure for `CCCCNC(=O)C1CCCCN1S(=O)(=O)/C=C/c1ccccc1` (centres undefined) is 4.96; for `O=C(NCCCc1ccccc1)C1CCCCN1S(=O)(=O)/C=C/c1ccccc1` (centres undefined) it is 5.96; for `CCc1ccccc1NC(=O)N1CCCC1C(=O)NCCCc1ccccc1` (centres undefined) it is below 4.30.
`O=C(NCc1ccccc1)C1CCCN1C(=O)Nc1ccccc1` (centres undefined) showed a pKi in test [1] of 4.48.
In test [1], `O=C(NCc1ccccc1)C1CCCN1C(=O)NC1CCCCC1` (centres undefined) showed a negative-log Ki (pKi) below 4.30.
The same measure, in the same setting: the figure for `CCCCNC(=O)C1CCCN1S(=O)(=O)CCc1ccccc1` (centres undefined) is 4.38; for `O=C(NCCCc1ccccc1)C1CCCN1C(=O)Nc1ccccc1` (centres undefined) it is 5.85.
The same measure, in the same setting: the figure for `O=C(NCCc1ccccc1)C1CCCN1C(=O)NC1CCCCC1` (centres undefined) is below 4.30; for `O=C(NCc1ccccc1)C1CCCCN1S(=O)(=O)Cc1ccccc1` (centres undefined) it is 4.41.
In test [1], `O=C(NCCCc1ccccc1)C1CCCN1S(=O)(=O)/C=C/c1ccccc1` (centres undefined) gave a pKi of 5.89.
Same read-out and setting: for `O=C(NCCCc1ccccc1)C1CCCCN1S(=O)(=O)Cc1ccccc1` (centres undefined) the value was 5.66.
Take `CCCCNC(=O)C1CCCN1S(=O)(=O)c1ccc(C)cc1` (centres undefined): the pKi in test [1] was below 4.30.
Take `O=C(NCCc1ccccc1)C1CCCN1C(=O)NCc1ccccc1` (centres undefined): in test [1], the pKi is below 4.52.
Same read-out and setting: the figure for `CCCCNC(=O)C1CCCN1C(=O)Nc1ccccc1CC` (centres undefined) is below 4.30.
The same measure, in the same setting: for `CCCCNC(=O)C1CCCN1S(=O)(=O)c1ccccc1` (centres undefined) the value was below 4.30.
The same measure, in the same setting: for `O=C(NCCc1ccccc1)C1CCCN1S(=O)(=O)CCc1ccccc1` (centres undefined) the value was 4.49.
Turning to `CCCCNC(=O)C1CCCCN1S(=O)(=O)Cc1ccccc1` (centres undefined), in test [1], the pKi was below 4.30.
On the same count and under the same terms, for `O=C(NCCc1ccccc1)C1CCCN1C(=O)Nc1ccccc1` (centres undefined) the value was 4.52.
Still for that read-out and setting: the figure for `O=C(NCCCc1ccccc1)C1CCCN1S(=O)(=O)c1ccccc1` (centres undefined) is 5.02.
`O=C(NCc1ccccc1)C1CCCN1S(=O)(=O)/C=C/c1ccccc1` (centres undefined) showed a pKi in test [1] below 4.30.
`O=C(NCCCc1ccccc1)[C@@H]1CCCN1C(=O)NCc1ccccc1` showed a pKi in test [1] of 5.38. For the same molecule, the Recovery in test [2] is 31%.
In test [1], `CCCCNC(=O)C1CCCN1C(=O)NC1CCCCC1` (centres undefined) had a pKi below 4.30.
Molecule `O=C(NCCc1ccccc1)C1CCCCN1S(=O)(=O)Cc1ccccc1` (centres undefined) gave a pKi in test [1] of 4.89.
On to `O=C(NCCCc1ccccc1)C1CCCN1C(=O)NC1CCCCC1` (centres undefined), for which, in test [1], the negative logarithm of the Ki (pKi) is below 4.48.
In turn, `O=C(NCCCCc1ccccc1)[C@@H]1CCCCN1C(=O)NCc1ccccc1` gave a pKi in test [1] of 5.80. In test [2], this molecule returned a Recovery of 42%.
`O=C(NCc1ccccc1)C1CCCN1S(=O)(=O)CCc1ccccc1` (centres undefined) gave a pKi in test [1] of 4.66.
On the same count and under the same terms, for `CCCCNC(=O)C1CCCCN1S(=O)(=O)c1ccccc1` (centres undefined) the value was 5.33.
In test [1], `CCCCCCCCS(=O)(=O)N1CCCC1C(=O)NCCCc1ccccc1` (centres undefined) had a pKi of 5.27.
In test [1], `Cc1ccc(S(=O)(=O)N2CCCC2C(=O)NCCCc2ccccc2)cc1` (centres undefined) gave a pKi of 5.12.
The molecule `CCc1ccccc1NC(=O)N1CCCC1C(=O)NCc1ccccc1` (centres undefined) had a pKi in test [1] below 4.30.
Take `O=C(NCc1ccccc1)C1CCCCN1S(=O)(=O)/C=C/c1ccccc1` (centres undefined): in test [1], the pKi was 5.41.
On the same count and under the same terms, for `CCCCCCCCS(=O)(=O)N1CCCC1C(=O)NCCc1ccccc1` (centres undefined) the value was below 4.30; for `CCc1ccc(S(=O)(=O)N2CCCCC2C(=O)NCc2ccccc2)cc1` (centres undefined), 5.89.
Turning to `O=C(NCCCc1ccccc1)C1CCCN1S(=O)(=O)CCc1ccccc1` (centres undefined), the pKi in test [1] is 4.89.
In turn, `O=C(NCCCc1ccccc1)[C@@H]1CCCN1S(=O)(=O)Cc1ccccc1` gave a pKi in test [1] of 5.55. The Recovery in test [2] was 17%.
Consider `O=C(NCCCCc1ccccc1)[C@@H]1CCCCN1S(=O)(=O)Cc1ccccc1`, for which, in test [2], the Recovery amounted to 37%.
Molecule `O=C(NCCc1ccccc1)C1CCCCN1S(=O)(=O)c1ccccc1` (centres undefined) showed a pKi in test [1] of 5.82.
For `O=C(NCc1ccccc1)C1CCCN1C(=O)NCc1ccccc1` (centres undefined), the pKi in test [1] was below 4.30.
For `CCc1ccccc1NC(=O)N1CCCC1C(=O)NCCc1ccccc1` (centres undefined), the pKi in test [1] was below 4.30.
For `O=C(NCCc1ccccc1)C1CCCCN1S(=O)(=O)/C=C/c1ccccc1` (centres undefined), the pKi in test [1] was 5.62.
The same measure, in the same setting: the figure for `CCCCNC(=O)C1CCCCN1S(=O)(=O)c1ccc(CC)cc1` (centres undefined) is 5.92; for `O=C(NCCCc1ccccc1)C1CCCCN1S(=O)(=O)c1ccccc1` (centres undefined) it is 6.14; for `CCCCNC(=O)C1CCCN1C(=O)NCc1ccccc1` (centres undefined) it is below 4.30.
Still for that read-out and setting: the figure for `CCCCCCCCS(=O)(=O)N1CCCC1C(=O)NCc1ccccc1` (centres undefined) is below 4.30.
As to `CCC(C)(C)C(=O)C(=O)N1CCC[C@H]1C(=O)OCCCc1cccnc1`, in test [2], the Recovery was determined as 40%.
`O=C(NCCc1ccccc1)C1CCCN1S(=O)(=O)/C=C/c1ccccc1` (centres undefined): the pKi in test [1] was 4.66.
The molecule `Cc1ccc(S(=O)(=O)N2CCCC2C(=O)NCCc2ccccc2)cc1` (centres undefined) gave a pKi in test [1] of 4.48.
Still for that read-out and setting: the figure for `CCc1ccc(S(=O)(=O)N2CCCCC2C(=O)NCCc2ccccc2)cc1` (centres undefined) is 5.80.

Broadly, the pKi is −log10 of the Ki, conventionally taken in molar units.
